The record followed here is the supplement of paper PMC11061612.

Assay [1] concerns NCI-H2087 (Lung Adenocarcinoma). Description: combination Emax (second highest fraction inhibited in the dose matrix, 72 h); higher = more inhibition; extreme values may be limits of the assay. An outline of the steps: (§1)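 Bliss excess equals the observed combination effect minus the expected value EA + EB − EA·EB, where EA and EB are the effects of each agent alone. Combination Emax is the second-highest inhibition within the matrix. Inhibition was scaled from CellTiter-Glo 2.0 luminescence, with 0 set by vehicle wells and 1 by blank wells, after 72 hours of two-drug dosing of cells plated in 1536-well plates.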

The test system of assay [2] is LU-165 (Small Cell Lung Carcinoma). The description is as above. An outline of the steps: as §1
Assay [3] relates to AU565 (Breast Carcinoma). The assay is described as above. An outline of the steps: as §1
Assay [4] concerns NCI-H1703 (Squamous Cell Lung Carcinoma). The description is as above. An outline of the steps: as §1
For assay [5], the system named is HCC1395 (Breast Carcinoma). Described as above. An outline of the steps: as §1
Assay [6] deals with CA46 (Burkitt's Lymphoma). Description: Bliss excess, mean over the matrix (fraction); higher = more synergy. The essentials:
as §1

The test system of assay [7] is LS-411N (Colorectal Carcinoma). The assay is described as above. The essentials: as §1
For another assay, the system named is A204 (Rhabdomyosarcoma). The assay is described as above. An outline of the steps:
as §1

In another assay the test system is EW-7 (Ewing's Sarcoma). The assay is described as above. The essentials:
as §1

The test system of assay [8] is ESO26 (Esophageal Adenocarcinoma). The assay is described as above. The essentials:
as §1

The test system of assay [9] is JHU-022 (Oral Cavity Carcinoma). Described as above. The essentials: as §1
Assay [10] concerns NCI-H716 (Colorectal Carcinoma). The assay is described as above. The essentials:
as §1

A further assay concerns WM1552C (Melanoma). The assay is described as above. The essentials:
as §1

Assay [11] deals with MHH-ES-1 (Ewing's Sarcoma). Described as above. An outline of the steps: as §1
A further assay concerns NB13 (Neuroblastoma). The assay is described as above. The essentials: as §1
Assay [12] relates to AU565 (Breast Carcinoma). The description is as above. An outline of the steps: as §1
The test system of a further assay is PEO1 (Ovarian Carcinoma). The description is as above. The essentials: as §1
The test system of assay [13] is NCI-H441 (Lung Adenocarcinoma). The description is as above. An outline of the steps: as §1
Assay [14] concerns NCI-H1703 (Squamous Cell Lung Carcinoma). The description is as above. An outline of the steps: as §1
A further assay relates to COLO-792 (Melanoma). Described as above. An outline of the steps:
as §1

In the case of `Cc1c2c(nn1C)CSCc1cc(n(C)n1)CSc1cc(c3ccccc3c1)OCCCc1c(C(=O)O)n(C)c3c-2c(Cl)ccc13` [AZD5991] + Cn1cnc2c(F)c(Nc3ccc(Br)cc3Cl)c(C(=O)NOCCO)cc21 [Selumetinib] (first compound max 1 µM, 7x7, partner max 3 µM), the “combination Emax” value in assay [1] was found to be 0.588; in [2] it was 0.161; in the assay on AU565 (Breast Carcinoma) [3] it was 1; in [4] it was 0.856; in [5], 0.56. The Bliss excess in assay [6] is -0.0195; in [7], 0.0493; with A204 (Rhabdomyosarcoma), -0.0355; in the assay on EW-7 (Ewing's Sarcoma), 0.0096; in [8], 0.0199; in assay [9], 0.0466. Further, the Bliss excess in [10] was 0.0278; in the assay with WM1552C (Melanoma) it was -0.089; in assay [11] it was -0.0127; with NB13 (Neuroblastoma), 0.045; in the assay on AU565 (Breast Carcinoma) [12] it was 0.0145; with PEO1 (Ovarian Carcinoma), 0.0027. The results for the Bliss excess (in assay [13]; in [14]; with COLO-792 (Melanoma)) were -0.0311, -0.0087 and 0.0234, respectively.
Regarding `C[C@@H]1COCCN1c1cc(C2([S@](C)(=N)=O)CC2)nc(-c2ccnc3[nH]ccc23)n1` [AZD6738] + O=C(c1cc(Cc2n[nH]c(=O)c3ccccc23)ccc1F)N1CCN(C(=O)C2CC2)CC1 [Olaparib] (first compound max 10 µM, 7x7, partner max 10 µM), the “combination Emax” value in assay [1] stood at 0.534; in [2], 0.309; in the assay on AU565 (Breast Carcinoma) [3], 0.449; in assay [4], 0.847; in assay [5], 0.852. Further, the Bliss excess in assay [6] was 0.0138; in assay [7], -0.105; in the assay with A204 (Rhabdomyosarcoma) it was -0.0075; in the assay with EW-7 (Ewing's Sarcoma), -0.0896; in [8], -0.0081; in [9], -0.0489. Moreover, the Bliss excess in assay [10] is -0.0229; with WM1552C (Melanoma), 0.0105; in [11], 0.0366; in the assay on NB13 (Neuroblastoma) it was 0.0511; with AU565 (Breast Carcinoma) [12] it was 0.005; with PEO1 (Ovarian Carcinoma), 0.0069. The values for the Bliss excess (in assay [13]; in assay [14]; in the assay with COLO-792 (Melanoma)) were 0.0124, -0.041 and 0.0322, respectively.
For the compound `NC1(C(=O)N[C@@H](CCO)c2ccc(Cl)cc2)CCN(c2ncnc3[nH]ccc23)CC1` [Capivasertib] + CC(=O)c1c(C)c2cnc(Nc3ccc(N4CCNCC4)cn3)nc2n(C2CCCC2)c1=O [Palbociclib] (first compound max 10 µM, 7x7, partner max 10 µM), the “combination Emax” value in assay [1] was determined as 0.244; in assay [2] it was 0.429; in the assay with AU565 (Breast Carcinoma) [3], 0.505; in assay [4], 0.609; in assay [5] it was 0.395. Further, the Bliss excess was 0.0033 in [6]; -0.0119 in assay [7]; -0.0496 in the assay on A204 (Rhabdomyosarcoma); 0.01 in the assay with EW-7 (Ewing's Sarcoma); -0.0512 in [8]; -0.0186 in [9]. The Bliss excess is -0.0018 in [10]; 0.0025 in the assay on WM1552C (Melanoma); 0.0257 in assay [11]; -0.076 in the assay with NB13 (Neuroblastoma); 0.0521 in the assay on AU565 (Breast Carcinoma) [12]; -0.0509 with PEO1 (Ovarian Carcinoma). In addition, the values for the Bliss excess (in assay [13]; in [14]; in the assay on COLO-792 (Melanoma)) were -0.0304, 0.0189 and -0.0643, respectively.
On to `NC1(C(=O)N[C@@H](CCO)c2ccc(Cl)cc2)CCN(c2ncnc3[nH]ccc23)CC1` [Capivasertib] + CC(C)n1c(=O)n(C)c2cnc3cc(F)c(-c4ccc(OCCCN5CCCCC5)nc4)cc3c21 [AZD1390] (first compound max 10 µM, 7x7, partner max 0.3 µM), for which the “combination Emax” value is 0.206 in assay [1]; 0.464 in assay [2]; 0.535 in the assay on AU565 (Breast Carcinoma) [3]; 0.548 in assay [4]; 0.383 in [5]. Moreover, the Bliss excess in assay [6] was -0.049; in assay [7] it was -0.0267; in the assay on A204 (Rhabdomyosarcoma), -0.0575; in the assay on EW-7 (Ewing's Sarcoma) it was -0.0311; in assay [8], -0.053; in assay [9] it was -0.0564. Moreover, the Bliss excess in assay [10] was -0.0701; in the assay on WM1552C (Melanoma), -0.0474; in [11], -0.0515; in the assay on NB13 (Neuroblastoma) it was -0.0584; in the assay on AU565 (Breast Carcinoma) [12], -0.025; with PEO1 (Ovarian Carcinoma), -0.0601. Also, the Bliss excess is -0.0711 in assay [13], -0.0132 in assay [14] and -0.0755 in the assay with COLO-792 (Melanoma).
On to `NC1(C(=O)N[C@@H](CCO)c2ccc(Cl)cc2)CCN(c2ncnc3[nH]ccc23)CC1` [Capivasertib] + CCN(CCO)CCCOc1ccc2c(Nc3cc(CC(=O)Nc4cccc(F)c4)[nH]n3)ncnc2c1 [AZD2811] (first compound max 10 µM, 7x7, partner max 1 µM), for which the “combination Emax” value stood at 0.256 in [1]; 0.47 in assay [2]; 0.819 in the assay on AU565 (Breast Carcinoma) [3]; 0.678 in assay [4]; 0.455 in [5]. Besides, the Bliss excess in [6] was -0.0519; in assay [7] it was -0.0556; in the assay on A204 (Rhabdomyosarcoma), -0.0058; with EW-7 (Ewing's Sarcoma), 0.0251; in assay [8], -0.0308; in [9], -0.0261. The Bliss excess in assay [10] is -0.0402; with WM1552C (Melanoma), -0.0378; in assay [11] it was -0.0132; in the assay with NB13 (Neuroblastoma), -0.007; with AU565 (Breast Carcinoma) [12], -0.0229; with PEO1 (Ovarian Carcinoma) it was -0.0134. Besides, the results for the Bliss excess (in assay [13]; in assay [14]; in the assay on COLO-792 (Melanoma)) were -0.0425, -0.0237 and 0.0486, respectively.
As to `NC1(C(=O)N[C@@H](CCO)c2ccc(Cl)cc2)CCN(c2ncnc3[nH]ccc23)CC1` [Capivasertib] + COc1nnc2ccc(N3CCC(c4ccc(OCCN5CCN(C)C(=O)[C@H]5C)cc4)CC3)nn12 [AZD5153] (first compound max 10 µM, 7x7, partner max 1 µM), the “combination Emax” value is 0.301 in assay [1]; 0.712 in assay [2]; 0.664 in the assay with AU565 (Breast Carcinoma) [3]; 0.733 in [4]; 0.395 in [5]. Besides, the Bliss excess in [6] is -0.0183; in [7], 0.11; in the assay with A204 (Rhabdomyosarcoma), 0.006; in the assay with EW-7 (Ewing's Sarcoma) it was -0.0004; in assay [8], 0.0358; in assay [9], 0.0019. The Bliss excess in [10] was -0.0181; with WM1552C (Melanoma) it was -0.0366; in assay [11], 0.0467; in the assay on NB13 (Neuroblastoma), 0.0532; in the assay on AU565 (Breast Carcinoma) [12], 0.0693; in the assay on PEO1 (Ovarian Carcinoma) it was 0.0529. Moreover, the Bliss excess was -0.006 in assay [13], 0.0357 in [14] and 0.133 with COLO-792 (Melanoma).
Consider `NC1(C(=O)N[C@@H](CCO)c2ccc(Cl)cc2)CCN(c2ncnc3[nH]ccc23)CC1` [Capivasertib] + C[C@@H]1COCCN1C2=NC(=NC(=C2)C3(CC3)[S@](=N)(=O)C)C4=C5C=CNC5=NC=C4 [AZD6738] (first compound max 10 µM, 7x7, partner max 10 µM), for which the “combination Emax” value in assay [1] worked out at 0.486; in [2], 0.657; with AU565 (Breast Carcinoma) [3], 0.684; in [4] it was 0.928; in assay [5] it was 0.581. The Bliss excess is 0.0324 in assay [6]; -0.0605 in assay [7]; -0.0201 in the assay with A204 (Rhabdomyosarcoma); 0.0021 in the assay on EW-7 (Ewing's Sarcoma); -0.0364 in assay [8]; -0.041 in [9]. Besides, the Bliss excess in [10] was -0.0317; in the assay with WM1552C (Melanoma) it was -0.062; in [11] it was -0.0259; in the assay with NB13 (Neuroblastoma), -0.0823; with AU565 (Breast Carcinoma) [12], -0.0126; in the assay with PEO1 (Ovarian Carcinoma) it was -0.0225. For the same compound, the Bliss excess is -0.0011 in assay [13], -0.0292 in assay [14] and 0.0487 in the assay with COLO-792 (Melanoma).
